Measurements published in PubChem BioAssay (NCI).
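96-well plates; 48 h exposure; 5 concentrations. Endpoints by linear interpolation between flanking doses. Not reached: highest tested concentration assigned. At the TGI there is no net growth.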

These molecules were tested on HS 578T breast (assay: DTP human tumour cell line panel, 48 h).
For O=C1NNC(=O)C2C3c4ccccc4C(c4ccccc43)C12 (stereo not drawn), the TGI was greater than 100 µM.
For CNC(=O)N1CCN(C(=O)NC)CCN(C(=O)NC)CC1, the TGI was greater than 100 µM.
In the case of CC1CN=C(Nc2ccc(S(N)(=O)=O)cc2)S1 (stereo not drawn), the TGI is reported as greater than 100 µM.
Oc1cc(O)c2c(c1)O[C@H](c1cc(O)c(O)c(O)c1)[C@H](O)C2 gave a TGI greater than 100 µM.
In the case of COC1(OC)C2(Cl)CCC1(Cl)C(OC(C)=O)C2 (stereo not drawn), the TGI is reported as greater than 100 µM.
Clc1ccc2c(NCCCCN=Cc3ccccc3)ccnc2c1 showed a TGI of 36.6 µM.
Molecule CSc1nc(Cl)c2c(n1)Sc1nc3cc4c(cc3n1C2O)OCO4 (stereo not drawn) has a TGI greater than 30.4 µM.
Nc1ccc(C(=O)Nn2c(-c3ccccc3)nc3ccccc3c2=O)cc1 showed a TGI greater than 100 µM.
Work on O=C(CC(=O)N(C(=O)c1ccccc1)c1ccc(Cl)cc1)N/N=C\c1cc(N=Nc2ccccc2Cl)ccc1O yielded a TGI of 61.6 µM.
In the case of CCN(CC)Cc1cc(Nc2ccnc3ccc4c(nnn4C)c23)ccc1O, the TGI is reported as 42.1 µM.
NS(=O)(=O)c1nnc(NC(=O)c2ccccc2)s1 showed a TGI greater than 100 µM.
CC(=O)OCC1OC(N2C(c3ccccc3)=CC(c3ccccc3)C(C#N)=C2S)C(OC(C)=O)C(OC(C)=O)C1OC(C)=O (stereo not drawn) was tested, and the TGI was 29.8 µM.

Each molecule was assayed on EKVX NSCLC (assay: DTP human tumour cell line panel, 48 h).
O=C1NNC(=O)C2C3c4ccccc4C(c4ccccc43)C12 (stereo not drawn) showed a TGI greater than 100 µM.
CNC(=O)N1CCN(C(=O)NC)CCN(C(=O)NC)CC1 showed a TGI greater than 100 µM.
For CC1CN=C(Nc2ccc(S(N)(=O)=O)cc2)S1 (stereo not drawn), the TGI was greater than 100 µM.
COC1(OC)C2(Cl)CCC1(Cl)C(OC(C)=O)C2 (stereo not drawn) was tested, and the TGI was greater than 100 µM.
In the case of Clc1ccc2c(NCCCCN=Cc3ccccc3)ccnc2c1, the TGI is reported as 43.7 µM.
CSc1nc(Cl)c2c(n1)Sc1nc3cc4c(cc3n1C2O)OCO4 (stereo not drawn) showed a TGI greater than 100 µM.
Nc1ccc(C(=O)Nn2c(-c3ccccc3)nc3ccccc3c2=O)cc1 was tested, and the TGI was greater than 100 µM.
In the case of O=C(CC(=O)N(C(=O)c1ccccc1)c1ccc(Cl)cc1)N/N=C\c1cc(N=Nc2ccccc2Cl)ccc1O, the TGI is reported as greater than 100 µM.
CCN(CC)Cc1cc(Nc2ccnc3ccc4c(nnn4C)c23)ccc1O gave a TGI greater than 100 µM.
For NS(=O)(=O)c1nnc(NC(=O)c2ccccc2)s1, the TGI was greater than 100 µM.

Each molecule was assayed on T-47D breast (assay: DTP human tumour cell line panel, 48 h).
In the case of O=C1NNC(=O)C2C3c4ccccc4C(c4ccccc43)C12 (stereo not drawn), the TGI is reported as greater than 100 µM.
Molecule CNC(=O)N1CCN(C(=O)NC)CCN(C(=O)NC)CC1 has a TGI greater than 100 µM.
CC1CN=C(Nc2ccc(S(N)(=O)=O)cc2)S1 (stereo not drawn) showed a TGI greater than 100 µM.
For Oc1cc(O)c2c(c1)O[C@H](c1cc(O)c(O)c(O)c1)[C@H](O)C2, the TGI was 80.7 µM.
With COC1(OC)C2(Cl)CCC1(Cl)C(OC(C)=O)C2 (stereo not drawn) the TGI was greater than 100 µM.
For Clc1ccc2c(NCCCCN=Cc3ccccc3)ccnc2c1, the TGI was 45.7 µM.
In the case of CSc1nc(Cl)c2c(n1)Sc1nc3cc4c(cc3n1C2O)OCO4 (stereo not drawn), the TGI is reported as greater than 100 µM.
For Nc1ccc(C(=O)Nn2c(-c3ccccc3)nc3ccccc3c2=O)cc1, the TGI was greater than 100 µM.
For O=C(CC(=O)N(C(=O)c1ccccc1)c1ccc(Cl)cc1)N/N=C\c1cc(N=Nc2ccccc2Cl)ccc1O, the TGI was greater than 100 µM.
CCN(CC)Cc1cc(Nc2ccnc3ccc4c(nnn4C)c23)ccc1O gave a TGI of 63.5 µM.
Work on NS(=O)(=O)c1nnc(NC(=O)c2ccccc2)s1 yielded a TGI greater than 100 µM.
For CC(=O)OCC1OC(N2C(c3ccccc3)=CC(c3ccccc3)C(C#N)=C2S)C(OC(C)=O)C(OC(C)=O)C1OC(C)=O (stereo not drawn), the TGI was greater than 24.3 µM.

These molecules were tested on NCI/ADR-RES ovarian (assay: DTP human tumour cell line panel, 48 h).
In the case of O=C1NNC(=O)C2C3c4ccccc4C(c4ccccc43)C12 (stereo not drawn), the TGI is reported as greater than 100 µM.
Work on CNC(=O)N1CCN(C(=O)NC)CCN(C(=O)NC)CC1 yielded a TGI greater than 100 µM.
With CC1CN=C(Nc2ccc(S(N)(=O)=O)cc2)S1 (stereo not drawn) the TGI was greater than 100 µM.
With Oc1cc(O)c2c(c1)O[C@H](c1cc(O)c(O)c(O)c1)[C@H](O)C2 the TGI was 63.8 µM.
COC1(OC)C2(Cl)CCC1(Cl)C(OC(C)=O)C2 (stereo not drawn) was tested, and the TGI was greater than 100 µM.
Clc1ccc2c(NCCCCN=Cc3ccccc3)ccnc2c1 was tested, and the TGI was 46.7 µM.
Work on CSc1nc(Cl)c2c(n1)Sc1nc3cc4c(cc3n1C2O)OCO4 (stereo not drawn) yielded a TGI of 5.72 µM.
For CCN(CC)Cc1cc(Nc2ccnc3ccc4c(nnn4C)c23)ccc1O, the TGI was 52.7 µM.
Work on NS(=O)(=O)c1nnc(NC(=O)c2ccccc2)s1 yielded a TGI greater than 100 µM.
CC(=O)OCC1OC(N2C(c3ccccc3)=CC(c3ccccc3)C(C#N)=C2S)C(OC(C)=O)C(OC(C)=O)C1OC(C)=O (stereo not drawn) showed a TGI greater than 100 µM.

These molecules were tested on SK-MEL-2 melanoma (assay: DTP human tumour cell line panel, 48 h).
CNC(=O)N1CCN(C(=O)NC)CCN(C(=O)NC)CC1 was tested, and the TGI was greater than 100 µM.
CC1CN=C(Nc2ccc(S(N)(=O)=O)cc2)S1 (stereo not drawn) was tested, and the TGI was greater than 100 µM.
Work on Oc1cc(O)c2c(c1)O[C@H](c1cc(O)c(O)c(O)c1)[C@H](O)C2 yielded a TGI of 28.9 µM.
COC1(OC)C2(Cl)CCC1(Cl)C(OC(C)=O)C2 (stereo not drawn) gave a TGI greater than 100 µM.
With Clc1ccc2c(NCCCCN=Cc3ccccc3)ccnc2c1 the TGI was 24.5 µM.
With CSc1nc(Cl)c2c(n1)Sc1nc3cc4c(cc3n1C2O)OCO4 (stereo not drawn) the TGI was greater than 64.4 µM.
Molecule CCN(CC)Cc1cc(Nc2ccnc3ccc4c(nnn4C)c23)ccc1O has a TGI of 31.8 µM.
With NS(=O)(=O)c1nnc(NC(=O)c2ccccc2)s1 the TGI was greater than 100 µM.
Molecule CC(=O)OCC1OC(N2C(c3ccccc3)=CC(c3ccccc3)C(C#N)=C2S)C(OC(C)=O)C(OC(C)=O)C1OC(C)=O (stereo not drawn) has a TGI of 16.8 µM.

These molecules were tested on MDA-MB-435 (assay: DTP human tumour cell line panel, 48 h).
Work on Oc1cc(O)c2c(c1)O[C@H](c1cc(O)c(O)c(O)c1)[C@H](O)C2 yielded a TGI of 25.4 µM.
In the case of COC1(OC)C2(Cl)CCC1(Cl)C(OC(C)=O)C2 (stereo not drawn), the TGI is reported as greater than 100 µM.
Molecule Clc1ccc2c(NCCCCN=Cc3ccccc3)ccnc2c1 has a TGI of 25.2 µM.
Molecule CSc1nc(Cl)c2c(n1)Sc1nc3cc4c(cc3n1C2O)OCO4 (stereo not drawn) has a TGI greater than 100 µM.
Work on Nc1ccc(C(=O)Nn2c(-c3ccccc3)nc3ccccc3c2=O)cc1 yielded a TGI greater than 100 µM.
O=C(CC(=O)N(C(=O)c1ccccc1)c1ccc(Cl)cc1)N/N=C\c1cc(N=Nc2ccccc2Cl)ccc1O was tested, and the TGI was greater than 100 µM.
For NS(=O)(=O)c1nnc(NC(=O)c2ccccc2)s1, the TGI was greater than 100 µM.
CC(=O)OCC1OC(N2C(c3ccccc3)=CC(c3ccccc3)C(C#N)=C2S)C(OC(C)=O)C(OC(C)=O)C1OC(C)=O (stereo not drawn) gave a TGI greater than 40.2 µM.

The molecules below were run on SK-MEL-5 melanoma (assay: DTP human tumour cell line panel, 48 h).
Molecule O=C1NNC(=O)C2C3c4ccccc4C(c4ccccc43)C12 (stereo not drawn) has a TGI greater than 100 µM.
Molecule CNC(=O)N1CCN(C(=O)NC)CCN(C(=O)NC)CC1 has a TGI greater than 100 µM.
For CC1CN=C(Nc2ccc(S(N)(=O)=O)cc2)S1 (stereo not drawn), the TGI was greater than 100 µM.
Molecule Oc1cc(O)c2c(c1)O[C@H](c1cc(O)c(O)c(O)c1)[C@H](O)C2 has a TGI of 37.6 µM.
COC1(OC)C2(Cl)CCC1(Cl)C(OC(C)=O)C2 (stereo not drawn) gave a TGI greater than 100 µM.
Clc1ccc2c(NCCCCN=Cc3ccccc3)ccnc2c1 gave a TGI of 26.5 µM.
With CSc1nc(Cl)c2c(n1)Sc1nc3cc4c(cc3n1C2O)OCO4 (stereo not drawn) the TGI was 7.49 µM.
Molecule Nc1ccc(C(=O)Nn2c(-c3ccccc3)nc3ccccc3c2=O)cc1 has a TGI greater than 100 µM.
In the case of CCN(CC)Cc1cc(Nc2ccnc3ccc4c(nnn4C)c23)ccc1O, the TGI is reported as 29.9 µM.
NS(=O)(=O)c1nnc(NC(=O)c2ccccc2)s1 showed a TGI greater than 100 µM.
In the case of CC(=O)OCC1OC(N2C(c3ccccc3)=CC(c3ccccc3)C(C#N)=C2S)C(OC(C)=O)C(OC(C)=O)C1OC(C)=O (stereo not drawn), the TGI is reported as 9.98 µM.

The molecules below were run on SN12C renal (assay: DTP human tumour cell line panel, 48 h).
O=C1NNC(=O)C2C3c4ccccc4C(c4ccccc43)C12 (stereo not drawn) showed a TGI greater than 100 µM.
CNC(=O)N1CCN(C(=O)NC)CCN(C(=O)NC)CC1 gave a TGI greater than 100 µM.
Molecule CC1CN=C(Nc2ccc(S(N)(=O)=O)cc2)S1 (stereo not drawn) has a TGI greater than 100 µM.
For Oc1cc(O)c2c(c1)O[C@H](c1cc(O)c(O)c(O)c1)[C@H](O)C2, the TGI was 37 µM.
For COC1(OC)C2(Cl)CCC1(Cl)C(OC(C)=O)C2 (stereo not drawn), the TGI was greater than 100 µM.
For Clc1ccc2c(NCCCCN=Cc3ccccc3)ccnc2c1, the TGI was 21.5 µM.
For CSc1nc(Cl)c2c(n1)Sc1nc3cc4c(cc3n1C2O)OCO4 (stereo not drawn), the TGI was 32.4 µM.
With Nc1ccc(C(=O)Nn2c(-c3ccccc3)nc3ccccc3c2=O)cc1 the TGI was greater than 100 µM.
For O=C(CC(=O)N(C(=O)c1ccccc1)c1ccc(Cl)cc1)N/N=C\c1cc(N=Nc2ccccc2Cl)ccc1O, the TGI was greater than 100 µM.
In the case of CCN(CC)Cc1cc(Nc2ccnc3ccc4c(nnn4C)c23)ccc1O, the TGI is reported as 31.8 µM.
Work on NS(=O)(=O)c1nnc(NC(=O)c2ccccc2)s1 yielded a TGI greater than 100 µM.
Work on CC(=O)OCC1OC(N2C(c3ccccc3)=CC(c3ccccc3)C(C#N)=C2S)C(OC(C)=O)C(OC(C)=O)C1OC(C)=O (stereo not drawn) yielded a TGI of 15.7 µM.

The molecules below were run on HL-60(TB) leukemia (assay: DTP human tumour cell line panel, 48 h).
With O=C1NNC(=O)C2C3c4ccccc4C(c4ccccc43)C12 (stereo not drawn) the TGI was greater than 100 µM.
CNC(=O)N1CCN(C(=O)NC)CCN(C(=O)NC)CC1 gave a TGI greater than 100 µM.
CC1CN=C(Nc2ccc(S(N)(=O)=O)cc2)S1 (stereo not drawn) showed a TGI greater than 100 µM.
With Oc1cc(O)c2c(c1)O[C@H](c1cc(O)c(O)c(O)c1)[C@H](O)C2 the TGI was 42.2 µM.
With Nc1ccc(C(=O)Nn2c(-c3ccccc3)nc3ccccc3c2=O)cc1 the TGI was greater than 100 µM.
O=C(CC(=O)N(C(=O)c1ccccc1)c1ccc(Cl)cc1)N/N=C\c1cc(N=Nc2ccccc2Cl)ccc1O showed a TGI of 26.2 µM.
Molecule CCN(CC)Cc1cc(Nc2ccnc3ccc4c(nnn4C)c23)ccc1O has a TGI of 50.6 µM.
In the case of CC(=O)OCC1OC(N2C(c3ccccc3)=CC(c3ccccc3)C(C#N)=C2S)C(OC(C)=O)C(OC(C)=O)C1OC(C)=O (stereo not drawn), the TGI is reported as greater than 100 µM.

These molecules were tested on SK-OV-3 ovarian (assay: DTP human tumour cell line panel, 48 h).
O=C1NNC(=O)C2C3c4ccccc4C(c4ccccc43)C12 (stereo not drawn) gave a TGI greater than 100 µM.
CNC(=O)N1CCN(C(=O)NC)CCN(C(=O)NC)CC1 gave a TGI greater than 100 µM.
With CC1CN=C(Nc2ccc(S(N)(=O)=O)cc2)S1 (stereo not drawn) the TGI was greater than 100 µM.
Oc1cc(O)c2c(c1)O[C@H](c1cc(O)c(O)c(O)c1)[C@H](O)C2 was tested, and the TGI was 56.7 µM.
Molecule COC1(OC)C2(Cl)CCC1(Cl)C(OC(C)=O)C2 (stereo not drawn) has a TGI greater than 100 µM.
Work on Clc1ccc2c(NCCCCN=Cc3ccccc3)ccnc2c1 yielded a TGI of 59.8 µM.
CSc1nc(Cl)c2c(n1)Sc1nc3cc4c(cc3n1C2O)OCO4 (stereo not drawn) gave a TGI greater than 75.3 µM.
Molecule Nc1ccc(C(=O)Nn2c(-c3ccccc3)nc3ccccc3c2=O)cc1 has a TGI greater than 100 µM.
Work on O=C(CC(=O)N(C(=O)c1ccccc1)c1ccc(Cl)cc1)N/N=C\c1cc(N=Nc2ccccc2Cl)ccc1O yielded a TGI greater than 100 µM.
CCN(CC)Cc1cc(Nc2ccnc3ccc4c(nnn4C)c23)ccc1O was tested, and the TGI was 31.5 µM.
NS(=O)(=O)c1nnc(NC(=O)c2ccccc2)s1 gave a TGI greater than 100 µM.
